Test results: the NIST ThermoML archive (doi:10.1016/j.fluid.2014.05.031)
Where “and” joins values, the source holds several entries; their conditions need not be identical. Identical values can stand only once.

Assay: excess molar enthalpy (molar enthalpy of mixing); xn = mol fraction of the nth substance listed
Conditions: Liquid, Flow calorimetry

CC(=O)O [acetic acid] + CCOC(C)=O
323.15 K, 1548 kPa
Conditions | excess molar enthalpy [kJ/mol]
x2 = 0.0148 | -0.0074
x2 = 0.03 | -0.0148
x2 = 0.0613 | -0.0266
x2 = 0.1108 | -0.0387
x2 = 0.1637 | -0.0437
x2 = 0.2403 | -0.0394
x2 = 0.3246 | -0.0264
x2 = 0.4179 | -0.0055
x2 = 0.5217 | 0.0219
x2 = 0.6379 | 0.0539
x2 = 0.7347 | 0.073
x2 = 0.8409 | 0.0786
x2 = 0.9178 | 0.0638
x2 = 0.9582 | 0.044

CC(=O)O [acetic acid] + CCO
323.15 K, 1548 kPa
Conditions | excess molar enthalpy [kJ/mol]
x1 = 0.0247 | 0.0451
x1 = 0.0493 | 0.0844
x1 = 0.0987 | 0.145
x1 = 0.1729 | 0.196
x1 = 0.2473 | 0.215
x1 = 0.3467 | 0.212
x1 = 0.4464 | 0.182
x1 = 0.5464 | 0.148
x1 = 0.6467 | 0.111
x1 = 0.7473 | 0.0803
x1 = 0.8229 | 0.0608
x1 = 0.8987 | 0.0389
x1 = 0.9493 | 0.0211
x1 = 0.9746 | 0.0117

CCOC(C)=O [ethyl acetate] + O
353.15 K, 1272 kPa
Conditions | excess molar enthalpy
x1 = 0.0096 | 0.0209 kJ/mol
x1 = 0.0201 | 0.0446 kJ/mol
x1 = 0.0441 | 0.0917 kJ/mol
x1 = 0.058 | 0.119 kJ/mol
x1 = 0.0733 | 0.149 kJ/mol
x1 = 0.0905 | 0.182 kJ/mol and 0.183 kJ/mol
x1 = 0.1096 | 0.22 kJ/mol
x1 = 0.1313 | 0.264 kJ/mol
x1 = 0.1559 | 0.311 kJ/mol
x1 = 0.1842 | 0.364 kJ/mol
x1 = 0.2169 | 0.43 kJ/mol
x1 = 0.2554 | 0.505 kJ/mol
x1 = 0.3012 | 0.594 kJ/mol
x1 = 0.3565 | 0.704 kJ/mol
x1 = 0.4249 | 0.838 kJ/mol
x1 = 0.5114 | 1 kJ/mol
x1 = 0.5639 | 1.1 kJ/mol
x1 = 0.6244 | 1.23 kJ/mol
x1 = 0.6949 | 1.36 kJ/mol
x1 = 0.8258 | 1.2 kJ/mol
x1 = 0.8781 | 0.94 kJ/mol
x1 = 0.9359 | 0.592 kJ/mol

CCO [ethanol] + O
Conditions | excess molar enthalpy [kJ/mol]
333.15 K, 1824 kPa, x1 = 0.0079 | -0.0399
333.15 K, 1824 kPa, x1 = 0.016 | -0.0795
333.15 K, 1824 kPa, x1 = 0.0333 | -0.155
333.15 K, 1824 kPa, x1 = 0.0519 | -0.217
333.15 K, 1824 kPa, x1 = 0.0719 | -0.266
333.15 K, 1824 kPa, x1 = 0.0936 | -0.297
333.15 K, 1824 kPa, x1 = 0.1172 | -0.308
333.15 K, 1824 kPa, x1 = 0.143 | -0.306
333.15 K, 1824 kPa, x1 = 0.1712 | -0.288
333.15 K, 1824 kPa, x1 = 0.2023 | -0.259
333.15 K, 1824 kPa, x1 = 0.2366 | -0.231
333.15 K, 1824 kPa, x1 = 0.2747 | -0.19
333.15 K, 1824 kPa, x1 = 0.3173 | -0.147
333.15 K, 1824 kPa, x1 = 0.3653 | -0.101
333.15 K, 1824 kPa, x1 = 0.4196 | -0.0523
333.15 K, 1824 kPa, x1 = 0.4818 | -0.0073
333.15 K, 1824 kPa, x1 = 0.5535 | 0.0274
333.15 K, 1824 kPa, x1 = 0.6372 | 0.0418
333.15 K, 1824 kPa, x1 = 0.7361 | 0.0312
333.15 K, 1824 kPa, x1 = 0.8548 | 0.0006
333.15 K, 1824 kPa, x1 = 0.9236 | -0.0155
333.15 K, 1824 kPa, x1 = 0.9608 | -0.0121
363.15 K, 1203 kPa, x1 = 0.0079 | -0.0112
363.15 K, 1203 kPa, x1 = 0.016 | -0.0235
363.15 K, 1203 kPa, x1 = 0.0333 | -0.0465
363.15 K, 1203 kPa, x1 = 0.0518 | -0.0592
363.15 K, 1203 kPa, x1 = 0.0719 | -0.0586
363.15 K, 1203 kPa, x1 = 0.0936 | -0.0453
363.15 K, 1203 kPa, x1 = 0.1172 | -0.0202
363.15 K, 1203 kPa, x1 = 0.143 | 0.0157
363.15 K, 1203 kPa, x1 = 0.1712 | 0.0549
363.15 K, 1203 kPa, x1 = 0.2022 | 0.0991
363.15 K, 1203 kPa, x1 = 0.2365 | 0.144
363.15 K, 1203 kPa, x1 = 0.2746 | 0.191
363.15 K, 1203 kPa, x1 = 0.3173 | 0.241
363.15 K, 1203 kPa, x1 = 0.3652 | 0.288
363.15 K, 1203 kPa, x1 = 0.4196 | 0.332
363.15 K, 1203 kPa, x1 = 0.4817 | 0.359
363.15 K, 1203 kPa, x1 = 0.5534 | 0.366
363.15 K, 1203 kPa, x1 = 0.6371 | 0.34
363.15 K, 1203 kPa, x1 = 0.736 | 0.268
363.15 K, 1203 kPa, x1 = 0.8548 | 0.147
363.15 K, 1203 kPa, x1 = 0.9236 | 0.0752
383.15 K, 1500 kPa, x1 = 0.0333 | 0.012
383.15 K, 1500 kPa, x1 = 0.0719 | 0.0617
383.15 K, 1500 kPa, x1 = 0.1172 | 0.142
383.15 K, 1500 kPa, x1 = 0.1712 | 0.246
383.15 K, 1500 kPa, x1 = 0.2365 | 0.359
383.15 K, 1500 kPa, x1 = 0.3173 | 0.469
383.15 K, 1500 kPa, x1 = 0.4196 | 0.554
383.15 K, 1500 kPa, x1 = 0.5534 | 0.579
383.15 K, 1500 kPa, x1 = 0.6371 | 0.544
383.15 K, 1500 kPa, x1 = 0.736 | 0.445
383.15 K, 1500 kPa, x1 = 0.7926 | 0.371
383.15 K, 1500 kPa, x1 = 0.8548 | 0.27
383.15 K, 1500 kPa, x1 = 0.9236 | 0.146

CCOC(C)=O [ethyl acetate] + CCO
Conditions | excess molar enthalpy [kJ/mol]
363.15 K, 1548 kPa, x1 = 0.0151 | 0.0973
363.15 K, 1548 kPa, x1 = 0.0305 | 0.198
363.15 K, 1548 kPa, x1 = 0.0624 | 0.392
363.15 K, 1548 kPa, x1 = 0.0956 | 0.578
363.15 K, 1548 kPa, x1 = 0.1302 | 0.757
363.15 K, 1548 kPa, x1 = 0.1664 | 0.926
363.15 K, 1548 kPa, x1 = 0.2042 | 1.083
363.15 K, 1548 kPa, x1 = 0.2438 | 1.228
363.15 K, 1548 kPa, x1 = 0.2853 | 1.374
363.15 K, 1548 kPa, x1 = 0.3288 | 1.489
363.15 K, 1548 kPa, x1 = 0.3745 | 1.582
363.15 K, 1548 kPa, x1 = 0.4226 | 1.667
363.15 K, 1548 kPa, x1 = 0.4732 | 1.717
363.15 K, 1548 kPa, x1 = 0.5265 | 1.71
363.15 K, 1548 kPa, x1 = 0.5828 | 1.69
363.15 K, 1548 kPa, x1 = 0.6424 | 1.618
363.15 K, 1548 kPa, x1 = 0.7054 | 1.486
363.15 K, 1548 kPa, x1 = 0.7724 | 1.276
363.15 K, 1548 kPa, x1 = 0.8435 | 0.972
363.15 K, 1548 kPa, x1 = 0.9192 | 0.555
363.15 K, 1548 kPa, x1 = 0.9589 | 0.292
413.15 K, 1307 kPa, x1 = 0.0151 | 0.108
413.15 K, 1307 kPa, x1 = 0.0306 | 0.222
413.15 K, 1307 kPa, x1 = 0.0624 | 0.439
413.15 K, 1307 kPa, x1 = 0.0956 | 0.646
413.15 K, 1307 kPa, x1 = 0.1302 | 0.841
413.15 K, 1307 kPa, x1 = 0.1664 | 1.028
413.15 K, 1307 kPa, x1 = 0.2042 | 1.198
413.15 K, 1307 kPa, x1 = 0.2438 | 1.36
413.15 K, 1307 kPa, x1 = 0.2853 | 1.502
413.15 K, 1307 kPa, x1 = 0.3288 | 1.623
413.15 K, 1307 kPa, x1 = 0.3745 | 1.725
413.15 K, 1307 kPa, x1 = 0.4226 | 1.773
413.15 K, 1307 kPa, x1 = 0.4732 | 1.815
413.15 K, 1307 kPa, x1 = 0.5265 | 1.812
413.15 K, 1307 kPa, x1 = 0.5829 | 1.765
413.15 K, 1307 kPa, x1 = 0.6424 | 1.663
413.15 K, 1307 kPa, x1 = 0.7055 | 1.502
413.15 K, 1307 kPa, x1 = 0.7724 | 1.261
413.15 K, 1307 kPa, x1 = 0.8435 | 0.939
413.15 K, 1307 kPa, x1 = 0.9192 | 0.524
413.15 K, 1307 kPa, x1 = 0.9589 | 0.276
